Tests used:
Assay in all cases: relative viability (nuclei count vs DMSO), 5 days (fraction); higher = more cells survive
NCI-H1755 = tested on: NCI-H1755
Summary of the method: (§1)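 Lung cancer cell lines, seeded in 1536-well plates, were treated the following day by pin tool with a single drug or with five library-drug doses (not always all listed) in √10 steps on top of a fixed anchor-drug dose. Cells were fixed and nuclei stained in one step after 5 days, and nuclei were counted. Relative viability is the nuclei count for treated wells divided by that for vehicle wells, reported as medians of duplicate plates.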

NCI-H1975 = tested on: NCI-H1975
Summary of the method: as §1

NCI-H2228 = tested on: NCI-H2228
Summary of the method: as §1

NCI-H2405 = tested on: NCI-H2405
Summary of the method: as §1

NCI-H322M = tested on: NCI-H322M
Summary of the method: as §1

NCI-H520 = tested on: NCI-H520
Summary of the method: as §1

NCI-H661 = tested on: NCI-H661
Summary of the method: as §1

PC-14 = tested on: PC-14
Summary of the method: as §1

PC-3 [JPC-3] = tested on: PC-3 [JPC-3]
Summary of the method: as §1

RERF-LC-KJ = tested on: RERF-LC-KJ
Summary of the method: as §1

## Nc1ccn([C@@H]2O[C@H](CO)[C@@H](O)[C@@H]2O)c(=O)n1 [Cytarabine] + CC(C)C[C@H](NC(=O)[C@H](Cc1ccccc1)NC(=O)c1cnccn1)B(O)O [Bortezomib] (partner 0.002 µM)
NCI-H1755; first compound 0.005 µM
  relative viability: 0.922
NCI-H1755; first compound 0.01581 µM
  relative viability: 0.88
NCI-H1755; first compound 0.05 µM
  relative viability: 0.663
NCI-H1755; first compound 0.1581 µM
  relative viability: 0.282
NCI-H1755; first compound 0.5 µM
  relative viability: 0.294
NCI-H1975; first compound 0.005 µM
  relative viability: 0.293
NCI-H1975; first compound 0.01581 µM
  relative viability: 0.323
NCI-H1975; first compound 0.05 µM
  relative viability: 0.276
NCI-H1975; first compound 0.1581 µM
  relative viability: 0.23
NCI-H1975; first compound 0.5 µM
  relative viability: 0.213
NCI-H2228; first compound 0.005 µM
  relative viability: 0.791
NCI-H2228; first compound 0.01581 µM
  relative viability: 0.441
NCI-H2228; first compound 0.05 µM
  relative viability: 0.437
NCI-H2228; first compound 0.1581 µM
  relative viability: 0.197
NCI-H2228; first compound 0.5 µM
  relative viability: 0.156
NCI-H2405; first compound 0.005 µM
  relative viability: 0.911
NCI-H2405; first compound 0.01581 µM
  relative viability: 0.694
NCI-H2405; first compound 0.05 µM
  relative viability: 0.662
NCI-H2405; first compound 0.1581 µM
  relative viability: 0.943
NCI-H2405; first compound 0.5 µM
  relative viability: 1.03
NCI-H322M; first compound 0.005 µM
  relative viability: 0.718
NCI-H322M; first compound 0.01581 µM
  relative viability: 1.01
NCI-H322M; first compound 0.05 µM
  relative viability: 0.717
NCI-H322M; first compound 0.1581 µM
  relative viability: 0.472
NCI-H322M; first compound 0.5 µM
  relative viability: 0.404
NCI-H520; first compound 0.005 µM
  relative viability: 0.412
NCI-H520; first compound 0.01581 µM
  relative viability: 0.363
NCI-H520; first compound 0.05 µM
  relative viability: 0.697
NCI-H520; first compound 0.1581 µM
  relative viability: 0.468
NCI-H520; first compound 0.5 µM
  relative viability: 0.34
NCI-H661; first compound 0.005 µM
  relative viability: 0.997
NCI-H661; first compound 0.01581 µM
  relative viability: 0.667
NCI-H661; first compound 0.05 µM
  relative viability: 0.596
NCI-H661; first compound 0.1581 µM
  relative viability: 0.381
NCI-H661; first compound 0.5 µM
  relative viability: 0.246
PC-14; first compound 0.005 µM
  relative viability: 0.872
PC-14; first compound 0.01581 µM
  relative viability: 0.88
PC-14; first compound 0.05 µM
  relative viability: 0.641
PC-14; first compound 0.1581 µM
  relative viability: 0.326
PC-14; first compound 0.5 µM
  relative viability: 0.268
PC-3 [JPC-3]; first compound 0.005 µM
  relative viability: 0.811
PC-3 [JPC-3]; first compound 0.01581 µM
  relative viability: 0.795
PC-3 [JPC-3]; first compound 0.05 µM
  relative viability: 0.779
PC-3 [JPC-3]; first compound 0.1581 µM
  relative viability: 0.503
PC-3 [JPC-3]; first compound 0.5 µM
  relative viability: 0.511
RERF-LC-KJ; first compound 0.005 µM
  relative viability: 1.01
RERF-LC-KJ; first compound 0.01581 µM
  relative viability: 0.91
RERF-LC-KJ; first compound 0.05 µM
  relative viability: 0.974
RERF-LC-KJ; first compound 0.1581 µM
  relative viability: 0.68
RERF-LC-KJ; first compound 0.5 µM
  relative viability: 0.472
